Results as given in patent publication US8778951B2, “Heteroaryl compounds and their uses” (Novartis AG, priority 2009, dated 2014).

These compounds were tested against Cdk9/cyclinT1 (Homo sapiens (Human), UniProt P50750) (assay: Cdk9/CyclinT1 IMAP Protocol (fluorescence polarization kinase assay)). Details: Table 2; generated using one of the two Cdk9/cyclinT1 assays (IMAP or Alpha Screen), not specified which; unit inferred.
Format: biochemical
Procedure: Cdk9/CyclinT1 IMAP Protocol
The biological activity of the compounds of the invention can be determined using the assay described below.
Cdk9/cyclinT1 is purchased from Millipore, cat #14-685. The final total protein concentration in the assay 4 nM. […] The final concentration of peptide substrate is 100 nM. The ATP substrate (Adenosine-5′-triphosphate) is purchased from Roche Diagnostics, cat#1140965. The final concentration of ATP substrate is 6 uM. IMAP (Immobilized Metal Assay for Phosphochemicals) Progressive Binding reagent is purchased from Molecular Devices, cat#R8139. Fluorescence polarization (FP) is used for detection. The 5TAMRA-cdk7tide peptide is phosphorylated by Cdk9/cyclinT1 kinase using the ATP substrate. The Phospho-5TAMRA-cdk7tide peptide substrate is bound to the IMAP Progressive Binding Reagent. The binding of the IMAP Progressive Binding Reagent changes the fluorescence polarization of the 5TAMRA-cdk7tide peptide which is measured at an excitation of 531 nm and FP emission of 595 nm. Assays are carried out in 100 mM Tris, pH=7.2, mM MgCl2, 0.05% NaN3, 0.01% Tween-20, 1 mM dithiothreitol and 2.5% dimethyl sulfoxide. IMAP Progressive Binding Reagent is diluted 1:800 in 100% 1× Solution A from Molecular Devices, cat#R7285.
General protocol is as follows: To 10 ul of cdk9/cyclinT1, 0.5 ul of test compound in dimethyl sulfoxide is added. 5TAMRA-cdk7tide and ATP are mixed. 10 ul of the 5TAMRA-cdk7tide/ATP mix is added to start the reaction. The reaction is allowed to proceed for 4.5 hrs. 60 uL of IMAP Progressive Binding Reagent is added. After >1 hr of incubation, plates are read on the Envision 2101 from Perkin-Elmer. The assay is run in a 384-well format using black Corning plates, cat#3573.

Chain of Cdk9/cyclinT1 (P50750 whole entry): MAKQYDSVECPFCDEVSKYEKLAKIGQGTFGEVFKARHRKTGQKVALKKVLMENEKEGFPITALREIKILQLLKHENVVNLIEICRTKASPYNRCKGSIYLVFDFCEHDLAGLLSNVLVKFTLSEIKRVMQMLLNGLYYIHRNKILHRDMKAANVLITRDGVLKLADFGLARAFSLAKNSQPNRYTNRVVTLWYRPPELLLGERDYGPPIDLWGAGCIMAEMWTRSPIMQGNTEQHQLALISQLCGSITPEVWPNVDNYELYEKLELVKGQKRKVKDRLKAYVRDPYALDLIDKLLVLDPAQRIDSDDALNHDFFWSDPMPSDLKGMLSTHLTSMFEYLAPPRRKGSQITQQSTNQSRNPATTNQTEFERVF
Chain of Cdk9/cyclinT1 (O60563 whole entry partner): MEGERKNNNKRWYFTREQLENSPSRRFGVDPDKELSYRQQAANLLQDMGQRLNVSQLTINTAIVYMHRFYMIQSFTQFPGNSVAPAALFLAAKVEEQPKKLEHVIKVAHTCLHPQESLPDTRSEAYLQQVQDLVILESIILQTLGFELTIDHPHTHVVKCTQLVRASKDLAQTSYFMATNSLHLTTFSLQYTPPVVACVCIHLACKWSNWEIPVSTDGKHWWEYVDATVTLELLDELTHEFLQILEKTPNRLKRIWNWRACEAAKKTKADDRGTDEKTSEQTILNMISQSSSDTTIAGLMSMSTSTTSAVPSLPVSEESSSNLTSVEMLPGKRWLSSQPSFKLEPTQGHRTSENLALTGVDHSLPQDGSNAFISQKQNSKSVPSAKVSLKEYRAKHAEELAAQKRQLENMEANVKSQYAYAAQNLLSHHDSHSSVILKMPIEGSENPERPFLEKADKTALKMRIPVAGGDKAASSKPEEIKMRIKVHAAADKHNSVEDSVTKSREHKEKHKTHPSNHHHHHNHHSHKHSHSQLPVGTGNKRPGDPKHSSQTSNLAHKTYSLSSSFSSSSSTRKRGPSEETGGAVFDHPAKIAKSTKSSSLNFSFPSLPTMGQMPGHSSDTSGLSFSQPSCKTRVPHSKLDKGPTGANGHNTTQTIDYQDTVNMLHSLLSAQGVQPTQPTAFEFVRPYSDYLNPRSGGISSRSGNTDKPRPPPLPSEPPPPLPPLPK

Q: “3,5′-dichloro-N6-((tetrahydro-2H-pyran-4-yl)methyl)-N2′-(trans-4-(((R)-tetrahydrofuran-2-yl)methyl)aminocyclohexyl)-2,4′-bipyridine-2′,6-diamine [Compound 268]” was tested. Which IC50 did it give?
A: Its IC50 is 8.14 nM.

Q: `Clc1cnc(N[C@H]2CC[C@H](NC3CCOC3)CC2)cc1-c1nc(NCC2CCOCC2)ccc1Cl` (mixture of isomers) [Compound 280, 3,5′-dichloro-N6-((tetrahydro-2H-pyran-4-yl)methyl)-N2′-(trans-4-(tetrahydrofuran-3-yl-amino)cyclohexyl)-2,4′-bipyridine-2′,6-diamine] was tested. Which IC50 did it give?
A: Its IC50 is 16.1 nM.

Q: With `CC1(C)C[C@H](CNc2cccc(-c3cc(N[C@H]4CC[C@H](N)CC4)ncc3Cl)n2)CCO1` (single isomer, unassigned) [Compound 256] as the compound, how does the IC50 read?
A: Its IC50 is 7.94 nM.

Q: For `CC1(C)C[C@@H](CNc2cccc(-c3cc(N[C@H]4CC[C@H](N)CC4)ncc3Cl)n2)CCO1` (single isomer, unassigned) [Compound 257], which IC50 is on record?
A: Its IC50 is 7.94 nM.

Q: With `C[C@H]1C[C@@H](Nc2cc(-c3cccc(NCc4cccc(F)c4)n3)c(Cl)cn2)CC[C@@H]1N` (stereo in doubt) [Compound 152] as the compound, how does the IC50 read?
A: Its IC50 is 27 nM.

Q: How did the IC50 turn out when `COC[C@@H](C)N[C@H]1CC[C@H](Nc2cc(-c3nc(NCC4CCCCO4)ccc3Cl)c(Cl)cn2)CC1` (stereo in doubt) [Compound 321, 3,5′-dichloro-N2′-(trans-4-((R)-1-methoxypropan-2-yl-amino)cyclohexyl)-N6-(((S)-tetrahydro-2H-pyran-2-yl)methyl)-2,4′-bipyridine-2′,6-diamine] was run?
A: Its IC50 is 11 nM.

Q: Which IC50 does the source give for `COC[C@@H](C)N[C@H]1CC[C@H](Nc2cc(-c3nc(NCC4CCCCO4)ccc3Cl)c(Cl)cn2)CC1` (stereo in doubt) [Compound 325, 3,5′-dichloro-N2′-(trans-4-((R)-1-methoxypropan-2-yl-amino)cyclohexyl)-N6-(((R)-tetrahydro-2H-pyran-2-yl)methyl)-2,4′-bipyridine-2′,6-diamine] here?
A: The IC50 was 10 nM.

Q: With `N[C@H]1CC[C@H](Nc2cc(-c3cccc(NCc4cccc(F)c4)n3)c(Cl)cn2)CC1` [Compound 1, N2′-(trans-4-aminocyclohexyl)-5′-chloro-N6-(3-fluorobenzyl)-2,4′-bipyridine-2′,6-diamine] as the compound, how does the IC50 read?
A: The IC50 was 7.95 nM.

Q: For `N[C@H]1CC[C@H](Nc2cc(-c3cccc(NCC4CCCCC4)n3)ccn2)CC1` [Compound 2, N2′-(trans-4-aminocyclohexyl)-N6-(cyclohexylmethyl)-2,4′-bipyridine-2′,6-diamine], which IC50 is on record?
A: The IC50 was 25.6 nM.

Q: For `N[C@H]1CC[C@H](Nc2ncc(Cl)c(-c3cccc(NCC4CCCCC4)n3)n2)CC1` [Compound 3, trans-N1-(5-chloro-4-(6-(cyclohexylmethylamino)pyridin-2-yl)pyrimidin-2-yl)cyclohexane-1,4-diamine], which IC50 is on record?
A: The IC50 was 238 nM.

Q: `NC[C@H]1CC[C@H](Nc2cc(-c3cccc(NCc4cccc(F)c4)n3)c(Cl)cn2)CC1` [Compound 4, N2′-(trans-4-(aminomethyl)cyclohexyl)-5′-chloro-N6-(3-fluorobenzyl)-2,4′-bipyridine-2′,6-diamine] was tested. Which IC50 did it give?
A: Its IC50 is 9.05 nM.

Q: `Fc1cccc(CNc2cccc(-c3cc(NC4CCNCC4)ncc3Cl)n2)c1` [Compound 5, 5′-chloro-N6-(3-fluorobenzyl)-N2′-(piperidin-4-yl)-2,4′-bipyridine-2′,6-diamine] was tested. Which IC50 did it give?
A: Its IC50 is 39.7 nM.

Q: How did the IC50 turn out when `CCS(=O)(=O)N1CCC(Nc2cc(-c3cccc(NCc4cccc(F)c4)n3)c(Cl)cn2)CC1` [Compound 6, 5′-chloro-N2′-(1-(ethylsulfonyl)piperidin-4-yl)-N6-(3-fluorobenzyl)-2,4′-bipyridine-2′,6-diamine] was run?
A: Its IC50 is 136 nM.

Q: With `CN(C)CC(=O)N[C@H]1CC[C@H](Nc2cc(-c3cccc(NCc4cccc(F)c4)n3)c(Cl)cn2)CC1` [Compound 7, N-(trans-4-(5′-chloro-6-(3-fluorobenzylamino)-2,4′-bipyridin-2′-yl-amino)cyclohexyl)-2-(dimethylamino)acetamide] as the compound, how does the IC50 read?
A: The IC50 was 24.8 nM.

Q: `O[C@H]1CC[C@H](Nc2cc(-c3cccc(NC4CCNCC4)n3)c(Cl)cn2)CC1` [Compound 8, trans-4-(5′-chloro-6-(piperidin-4-yl-amino)-2,4′-bipyridin-2′-yl-amino)cyclohexanol] was tested. Which IC50 did it give?
A: Its IC50 is 84.8 nM.

Q: How did the IC50 turn out when `NC[C@H]1CC[C@H](Nc2cc(-c3cccc(OCc4cccc(F)c4)n3)c(Cl)cn2)CC1` [Compound 9, N-(trans-4-(aminomethyl)cyclohexyl)-5′-chloro-6-(3-fluorobenzyloxy)-2,4′-bipyridin-2′-amine] was run?
A: The IC50 was 7.95 nM.

Q: Which IC50 does the source give for `Fc1cccc(CNc2cncc(-c3ccnc(N[C@H]4CC[C@H](NCc5ccccc5)CC4)c3)n2)c1` [Compound 10, trans-N1-benzyl-N4-(4-(6-(3-fluorobenzylamino)pyrazin-2-yl)pyridin-2-yl)cyclohexane-1,4-diamine] here?
A: Its IC50 is 18.6 nM.

Q: For `N[C@H]1CC[C@H](Nc2cc(-c3cc(C(F)(F)F)cc(NCc4cccc(F)c4)n3)ccn2)CC1` [Compound 11, N2′-(trans-4-aminocyclohexyl)-N6-(3-fluorobenzyl)-4-(trifluoromethyl)-2,4′-bipyridine-2′,6-diamine], which IC50 is on record?
A: Its IC50 is 133 nM.

Q: With `N#Cc1ccc(-c2cc(N[C@H]3CC[C@H](N)CC3)ncc2Cl)nc1NCc1cccc(F)c1` [Compound 13, 2′-((1r,4r)-4-amonocyclohexylamino)-5′-chloro-6-(3-fluorobenzylamino)-2,4′-bipyridine-5-carbonitrile] as the compound, how does the IC50 read?
A: The IC50 was 7.95 nM.

Q: For `NC(=O)c1ccc(-c2cc(N[C@H]3CC[C@H](N)CC3)ncc2Cl)nc1NCc1cccc(F)c1` [Compound 14, 2′-((1r,4r)-4-aminocyclohexylamino)-5′-chloro-6-(3-fluorobenzylamino)-2,4′-bipyridine-5-carboxamide], which IC50 is on record?
A: The IC50 was 522 nM.

Q: With `NC(=O)c1cc(NCc2cccc(F)c2)nc(-c2cc(N[C@H]3CC[C@H](N)CC3)ncc2Cl)c1` [Compound 16, 2′-(trans-4-aminocyclohexylamino)-5′-chloro-6-(3-fluorobenzylamino)-2,4′-bipyridine-4-carboxamide] as the compound, how does the IC50 read?
A: Its IC50 is 23.6 nM.

Q: How did the IC50 turn out when `N[C@H]1CC[C@H](Nc2cc(-c3cc(C(=O)O)cc(NCc4cccc(F)c4)n3)c(Cl)cn2)CC1` [Compound 17, 2′-(trans-4-aminocyclohexylamino)-5′-chloro-6-(3-fluorobenzylamino)-2,4′-bipyridine-4-carboxylic acid] was run?
A: The IC50 was 23.2 nM.

Q: Which IC50 does the source give for `OCCN[C@H]1CC[C@H](Nc2cc(-c3cccc(NCc4cccc(F)c4)n3)c(Cl)cn2)CC1` [Compound 19, 2-(trans-4-(5′-chloro-6-(3-fluorobenzylamino)-2,4′-bipyridin-2′-yl-amino)cyclohexylamino)ethanol] here?
A: Its IC50 is 7.95 nM.

Q: How did the IC50 turn out when `CS(=O)(=O)CCN[C@H]1CC[C@H](Nc2cc(-c3cccc(NCc4cccc(F)c4)n3)c(Cl)cn2)CC1` [Compound 20, 5′-chloro-N6-(3-fluorobenzyl)-N2′-(trans-4-(2-(methylsulfonyl)ethylamino)cyclohexyl)-2,4′-bipyridine-2′,6-diamine] was run?
A: The IC50 was 7.95 nM.

Q: For `CN[C@H]1CC[C@H](Nc2cc(-c3cccc(NCc4cccc(F)c4)n3)c(Cl)cn2)CC1` [Compound 21, 5′-chloro-N6-(3-fluorobenzyl)-N2′-(trans-4-(methylamino)cyclohexyl)-2,4′-bipyridine-2′,6-diamine], which IC50 is on record?
A: Its IC50 is 7.95 nM.

Q: With `CNC[C@H]1CC[C@H](Nc2cc(-c3cccc(NCc4cccc(F)c4)n3)c(Cl)cn2)CC1` [Compound 22, 5′-chloro-N6-(3-fluorobenzyl)-N2′-(trans-4-((methylamino)methyl)cyclohexyl)-2,4′-bipyridine-2′,6-diamine] as the compound, how does the IC50 read?
A: Its IC50 is 7.95 nM.
